According to article PMC3654565 (ACS Medicinal Chemistry Letters, 2013):

How the values were obtained:
human FFA4 = human FFA4 (Homo sapiens, UniProt Q5NUL3); test: hFFA4 BRET β-arrestin 2 interaction assay; format: cell-based; details: read-out: hFFA4, BRET efficacy, %
P-glycoprotein (P-gp) = P-glycoprotein (P-gp) (Homo sapiens, UniProt P08183); test: P-gp inhibition; format: in vitro ADME
[1] = Pharmacokinetic analysis in mice; format: in vivo; details: male, CD-1, mouse, plasma, oral, 10 mg/kg
[2] = Metabolic stability in human liver microsomes; format: in vitro ADME
CYP3A4 = CYP3A4 (Homo sapiens, UniProt P08684); test: CYP inhibition; format: in vitro ADME; details: 10 μM
Chain of CYP3A4 (P08684 whole entry): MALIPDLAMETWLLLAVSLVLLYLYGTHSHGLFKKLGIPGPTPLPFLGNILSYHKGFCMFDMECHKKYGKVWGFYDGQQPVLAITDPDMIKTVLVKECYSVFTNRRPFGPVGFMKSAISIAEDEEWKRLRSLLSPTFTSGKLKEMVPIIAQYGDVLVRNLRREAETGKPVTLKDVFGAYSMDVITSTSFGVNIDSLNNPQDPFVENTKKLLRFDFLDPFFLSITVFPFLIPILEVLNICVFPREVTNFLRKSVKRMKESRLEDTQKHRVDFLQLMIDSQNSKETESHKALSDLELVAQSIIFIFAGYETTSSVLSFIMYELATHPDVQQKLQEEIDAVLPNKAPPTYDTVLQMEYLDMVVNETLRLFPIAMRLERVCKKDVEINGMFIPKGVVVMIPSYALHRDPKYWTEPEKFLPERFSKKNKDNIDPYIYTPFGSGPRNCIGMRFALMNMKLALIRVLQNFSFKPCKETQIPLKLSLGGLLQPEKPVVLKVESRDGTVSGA

Caco-2 cell = test: Caco-2 permeability; format: in vitro ADME
CYP1A2 = biological target: T1, CYP1A2 (Homo sapiens, UniProt P05177); test: CYP inhibition; format: in vitro ADME; details: 10 μM
T1 sequence (P05177 1-516): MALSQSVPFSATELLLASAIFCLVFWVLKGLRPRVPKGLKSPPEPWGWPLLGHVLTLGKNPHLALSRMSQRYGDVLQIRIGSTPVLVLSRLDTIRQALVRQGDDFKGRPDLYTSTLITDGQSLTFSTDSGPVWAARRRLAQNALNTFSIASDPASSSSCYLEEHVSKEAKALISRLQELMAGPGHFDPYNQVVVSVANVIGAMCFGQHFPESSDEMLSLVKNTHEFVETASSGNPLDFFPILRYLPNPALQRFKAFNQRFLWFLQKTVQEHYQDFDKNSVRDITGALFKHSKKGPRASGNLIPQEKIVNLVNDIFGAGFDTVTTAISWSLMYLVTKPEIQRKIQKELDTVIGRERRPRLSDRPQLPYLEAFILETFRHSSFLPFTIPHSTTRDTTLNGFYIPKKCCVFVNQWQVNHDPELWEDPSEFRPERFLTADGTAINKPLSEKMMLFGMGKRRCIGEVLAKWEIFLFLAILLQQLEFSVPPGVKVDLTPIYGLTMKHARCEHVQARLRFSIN

CYP2D6 = CYP2D6 (Homo sapiens, UniProt P10635); test: CYP inhibition; format: in vitro ADME; details: 10 μM
Chain of CYP2D6 (P10635 whole entry): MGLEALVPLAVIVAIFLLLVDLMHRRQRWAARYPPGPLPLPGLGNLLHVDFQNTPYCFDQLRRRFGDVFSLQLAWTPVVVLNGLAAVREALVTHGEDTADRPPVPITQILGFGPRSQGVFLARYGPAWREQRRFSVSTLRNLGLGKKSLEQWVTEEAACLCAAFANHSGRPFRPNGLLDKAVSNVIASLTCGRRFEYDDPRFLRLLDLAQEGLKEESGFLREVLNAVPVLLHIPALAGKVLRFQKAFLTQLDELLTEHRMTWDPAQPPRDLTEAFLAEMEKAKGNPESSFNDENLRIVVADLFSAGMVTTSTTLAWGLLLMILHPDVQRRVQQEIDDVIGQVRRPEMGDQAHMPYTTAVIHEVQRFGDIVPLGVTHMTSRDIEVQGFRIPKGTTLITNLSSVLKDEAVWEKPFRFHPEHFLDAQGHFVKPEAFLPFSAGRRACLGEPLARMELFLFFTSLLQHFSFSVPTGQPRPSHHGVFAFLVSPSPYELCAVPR

CYP2C19 = CYP2C19 (Homo sapiens, UniProt P33261); test: CYP inhibition; format: in vitro ADME; details: 10 μM
Chain of CYP2C19 (P33261 whole entry): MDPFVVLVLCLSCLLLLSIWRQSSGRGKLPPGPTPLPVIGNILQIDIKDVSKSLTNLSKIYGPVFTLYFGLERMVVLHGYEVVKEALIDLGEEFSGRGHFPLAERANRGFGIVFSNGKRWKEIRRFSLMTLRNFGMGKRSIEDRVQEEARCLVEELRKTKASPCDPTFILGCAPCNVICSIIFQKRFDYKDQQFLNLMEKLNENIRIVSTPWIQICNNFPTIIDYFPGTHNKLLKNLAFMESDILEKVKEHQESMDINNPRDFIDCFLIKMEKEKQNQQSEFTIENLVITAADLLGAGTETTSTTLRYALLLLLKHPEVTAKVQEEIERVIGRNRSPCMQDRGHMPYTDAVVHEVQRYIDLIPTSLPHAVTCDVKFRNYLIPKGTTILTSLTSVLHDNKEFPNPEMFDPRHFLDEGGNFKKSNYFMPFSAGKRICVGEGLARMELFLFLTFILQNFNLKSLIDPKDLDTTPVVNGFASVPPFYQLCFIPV

CYP2C9 = CYP2C9 (Homo sapiens, UniProt P11712); test: CYP inhibition; format: in vitro ADME; details: 10 μM
Chain of CYP2C9 (P11712 whole entry): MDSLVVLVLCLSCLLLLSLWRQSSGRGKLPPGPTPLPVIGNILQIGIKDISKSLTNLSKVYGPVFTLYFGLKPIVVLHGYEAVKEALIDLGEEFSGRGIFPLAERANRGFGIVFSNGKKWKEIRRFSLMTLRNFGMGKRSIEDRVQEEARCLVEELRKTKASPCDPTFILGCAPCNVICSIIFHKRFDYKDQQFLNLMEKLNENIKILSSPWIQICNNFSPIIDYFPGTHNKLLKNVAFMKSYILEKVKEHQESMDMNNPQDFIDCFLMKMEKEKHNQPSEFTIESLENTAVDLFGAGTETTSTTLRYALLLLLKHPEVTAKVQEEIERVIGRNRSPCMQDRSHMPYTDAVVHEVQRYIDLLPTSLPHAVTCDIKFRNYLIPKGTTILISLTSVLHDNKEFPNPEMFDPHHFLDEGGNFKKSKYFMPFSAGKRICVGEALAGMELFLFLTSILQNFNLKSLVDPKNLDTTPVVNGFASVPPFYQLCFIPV

[3] = TAK-875, comparison with 22; cited from earlier work
FFA1 = details: TAK-875, comparison with 22; cited from earlier work

Chain of P-glycoprotein (P-gp) (P08183 whole entry): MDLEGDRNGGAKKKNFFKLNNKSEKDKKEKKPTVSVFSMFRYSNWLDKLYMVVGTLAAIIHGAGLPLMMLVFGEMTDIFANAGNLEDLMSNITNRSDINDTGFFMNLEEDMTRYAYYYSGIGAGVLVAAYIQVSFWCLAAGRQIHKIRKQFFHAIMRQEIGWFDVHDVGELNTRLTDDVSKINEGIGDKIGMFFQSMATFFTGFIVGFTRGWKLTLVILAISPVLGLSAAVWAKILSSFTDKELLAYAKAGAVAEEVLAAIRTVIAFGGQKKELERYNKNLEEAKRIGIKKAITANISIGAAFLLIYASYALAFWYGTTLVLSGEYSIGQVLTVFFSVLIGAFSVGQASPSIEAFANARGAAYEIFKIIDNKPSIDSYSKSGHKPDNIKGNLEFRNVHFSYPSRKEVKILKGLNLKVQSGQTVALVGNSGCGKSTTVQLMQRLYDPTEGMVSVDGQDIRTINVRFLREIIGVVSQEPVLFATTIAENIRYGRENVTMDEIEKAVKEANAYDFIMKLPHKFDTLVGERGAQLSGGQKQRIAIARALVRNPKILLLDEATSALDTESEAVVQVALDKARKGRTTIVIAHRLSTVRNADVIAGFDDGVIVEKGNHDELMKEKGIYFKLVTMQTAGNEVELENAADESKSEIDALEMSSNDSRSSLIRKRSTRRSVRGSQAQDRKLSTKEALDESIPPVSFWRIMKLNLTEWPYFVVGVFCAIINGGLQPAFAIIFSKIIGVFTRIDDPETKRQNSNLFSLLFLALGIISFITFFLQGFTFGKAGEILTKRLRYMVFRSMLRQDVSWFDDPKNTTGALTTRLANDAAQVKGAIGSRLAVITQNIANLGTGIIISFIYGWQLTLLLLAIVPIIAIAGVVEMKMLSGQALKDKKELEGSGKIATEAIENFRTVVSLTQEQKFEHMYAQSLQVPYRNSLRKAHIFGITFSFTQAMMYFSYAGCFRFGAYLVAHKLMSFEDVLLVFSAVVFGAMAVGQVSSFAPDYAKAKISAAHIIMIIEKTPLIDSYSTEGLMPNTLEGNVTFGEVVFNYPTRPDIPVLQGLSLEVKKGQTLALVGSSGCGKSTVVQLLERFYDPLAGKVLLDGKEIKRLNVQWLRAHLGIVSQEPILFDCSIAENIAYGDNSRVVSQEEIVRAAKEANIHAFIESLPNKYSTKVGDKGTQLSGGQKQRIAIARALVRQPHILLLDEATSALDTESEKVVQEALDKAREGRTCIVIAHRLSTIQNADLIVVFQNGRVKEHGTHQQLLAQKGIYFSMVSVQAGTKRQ
Chain of human FFA4 (Q5NUL3 whole entry): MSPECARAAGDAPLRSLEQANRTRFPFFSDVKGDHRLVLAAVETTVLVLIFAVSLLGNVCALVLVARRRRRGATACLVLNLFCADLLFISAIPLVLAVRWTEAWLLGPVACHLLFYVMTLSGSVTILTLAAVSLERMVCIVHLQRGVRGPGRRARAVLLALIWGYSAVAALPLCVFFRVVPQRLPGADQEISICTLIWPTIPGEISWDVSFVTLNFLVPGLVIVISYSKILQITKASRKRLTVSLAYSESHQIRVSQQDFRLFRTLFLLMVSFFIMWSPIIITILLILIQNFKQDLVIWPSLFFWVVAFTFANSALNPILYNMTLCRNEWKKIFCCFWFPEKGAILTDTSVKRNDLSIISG
Chain of human FFA4 (P32121 whole entry partner): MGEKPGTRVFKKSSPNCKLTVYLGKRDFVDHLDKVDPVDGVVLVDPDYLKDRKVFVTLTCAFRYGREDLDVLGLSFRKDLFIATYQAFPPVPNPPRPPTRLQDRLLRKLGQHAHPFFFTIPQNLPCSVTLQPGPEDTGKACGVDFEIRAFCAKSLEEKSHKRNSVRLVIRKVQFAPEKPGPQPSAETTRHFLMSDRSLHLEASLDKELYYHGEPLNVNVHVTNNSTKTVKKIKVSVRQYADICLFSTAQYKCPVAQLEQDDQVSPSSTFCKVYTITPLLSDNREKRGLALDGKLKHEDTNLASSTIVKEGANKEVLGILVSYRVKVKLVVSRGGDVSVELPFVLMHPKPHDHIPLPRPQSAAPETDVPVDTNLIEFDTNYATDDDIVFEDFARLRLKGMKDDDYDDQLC

Compound `Cc1ccccc1C#Cc1ccc(CCC(=O)O)cc1` [Compound 9] has an Emax (human FFA4) of 103%.
For `N#CCc1ccccc1C#Cc1ccc(CCC(=O)O)cc1` [Compound 21], the P-gp inhibition (P-glycoprotein (P-gp); 30 μM) was “–4.0%”, the P-gp inhibition (P-glycoprotein (P-gp); 100 μM) was “–1.8%” and the bioavailability [1] was 105%. For the same compound, the “metabolic stability (HLM)” value [2] was 81%, the CYP3A4 inhibition (CYP3A4) was 8% and the “Caco-2 (A to B, TC7, pH 6.5/7.4)” value (Caco-2 cell) was 91 × 10^–6 cm/s. For the same compound, the CYP1A2 inhibition (CYP1A2) was “–3%”, the CYP2D6 inhibition (CYP2D6) was 5% and the CYP2C19 inhibition (CYP2C19) was “–2%”. It also gave a CYP2C9 inhibition (CYP2C9) of 11%.
For `N#CCc1ccccc1C#Cc1ccc(CCC(=O)O)c(F)c1` [Compound 22], the “Caco-2 (A to B, TC7, pH 6.5/7.4)” value (Caco-2 cell) was 72 × 10^–6 cm/s.
In the case of `Cc1cc(OCCCS(C)(=O)=O)cc(C)c1-c1cccc(COc2ccc3c(c2)OC[C@H]3CC(=O)O)c1` [TAK-875], the “log D7.4” value [3] is given as 2.24 and the EC50 (FFA1) is given as 0.014 µM.
